The term EC50 denotes the concentration that produces a half-maximal response. By IC50 is commonly meant the point on the concentration scale where inhibition reaches its midpoint. In general, CC50 refers to the concentration at which the toxic effect on the cells reaches its halfway point. High values mean better tolerance by the cells, low ones harm at low concentration.

In one data set the test system is HBV. Nature of the data set: Determination of HBV DNA from the supernatants of HepAD38 cells (anti-HBV activity). Particulars: Hepatitis B virus, 144 h; HBV DNA in HepAD38 supernatant, day 6, qPCR; read-out: Cell Activity (EC50). It counts as cell-based, hepatitis B virus. The method, boiled down: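 Supernatant viral DNA was measured by LightCycler qPCR, calibrated with pCH-9/3091 plasmid, 6 days after tetracycline-free HepAD38 cultures received half-log serial compound dilutions; untreated and tetracycline-treated cells served as controls; EC50 was fitted by non-linear regression.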
In general terms: Quantitative PCR measures a nucleic acid by following its amplification.

Another data set concerns the target T1, HBV core protein (UniProt P03146).
T1 construct: fused on or other part: BODIPY-FL maleimide label on the C-terminal Cys150
The experiment in a line: Biochemical capsid assembly assay (fluorescence quenching). Further details: species or system hepatitis B virus. As to conditions: read-out: Assembly Activity (IC50); BODIPY-FL labelled core protein, 300 μM NaCl, read 6 min after start. The method, boiled down: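 Assembly-induced fluorescence quenching (477/525 nm) was measured 6 min after NaCl addition ([…]), against 2.5 M and 0 M NaCl controls. The labelled C150 core dimer (truncated at 149) at 1.0-2.0 μM in HEPES pH 7.5 was tested with eight half-log compound dilutions, top 100, 31.6 or 10 μM. EC50 was obtained by non-linear fit from triplicates run three times.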

Data set [1] can be described thus: Cell viability assay (AlamarBlue) in HepAD38 cells. Particulars: human.

T1 sequence (P03146 whole entry, looked up, the tested form may be a part): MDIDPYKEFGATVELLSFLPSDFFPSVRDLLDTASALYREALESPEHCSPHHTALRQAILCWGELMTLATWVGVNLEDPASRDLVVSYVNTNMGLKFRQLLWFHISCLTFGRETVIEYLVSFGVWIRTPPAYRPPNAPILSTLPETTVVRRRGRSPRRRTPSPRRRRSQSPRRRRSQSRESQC

Regarding `O=C(c1cc2ccccc2[nH]1)N1CCc2[nH]nc(C(=O)N3Cc4cn[nH]c4C3)c2C1` [Example 181, 2-(3-{1H,4H,5H,6H-pyrrolo[3,4-c]pyrazole-5-carbonyl}-1H,4H,5H,6H,7H-pyrazolo[4,3-c]pyridine-5-carbonyl)-1H-indole], the EC50 with HBV fell in the range of 1 to 25 µM. In addition, on HBV core protein, the IC50 lay within 5 to 10 µM. For the same compound, the half-maximal cytotoxic concentration (CC50) at 6 days in data set [1] was above 10 µM.

For `O=C(c1cc2ccccc2[nH]1)N1CCc2[nH]nc(C(=O)N3CCCC34CC4)c2C1` [Example 184, 2-(3-{4-azaspiro[2.4]heptane-4-carbonyl}-1H,4H,5H,6H,7H-pyrazolo[4,3-c]pyridine-5-carbonyl)-1H-indole], the EC50 in the data set on HBV is below 1 µM. Besides, the half-inhibitory concentration (IC50) on HBV core protein is below 5 µM. The compound also returned a CC50 at 6 days in data set [1] above 10 µM.

For the compound `CCN(C(=O)c1n[nH]c2c1CN(C(=O)c1cc3ccccc3[nH]1)CC2)C1COC1` [Example 185, N-ethyl-5-(1H-indole-2-carbonyl)-N-(oxetan-3-yl)-1H,4H,5H,6H,7H-pyrazolo[4,3-c]pyridine-3-carboxamide], in the data set with HBV, the EC50 is below 1 µM. The IC50 at HBV core protein lay in the range of 5 to 10 µM. Moreover, the CC50 at 6 days in data set [1] is above 10 µM.

Regarding `CN(C(=O)c1n[nH]c2c1CN(C(=O)c1cc3ccccc3[nH]1)CC2)C1COC1` [Example 188, 5-(1H-indole-2-carbonyl)-N-methyl-N-(oxetan-3-yl)-1H,4H,5H,6H,7H-pyrazolo[4,3-c]pyridine-3-carboxamide], in the data set with HBV, the EC50 was below 1 µM. Besides, at HBV core protein, the IC50 lay within 5 to 10 µM. In addition, in data set [1], the CC50 at 6 days is above 10 µM.

With `CN(C(=O)c1n[nH]c2c1CN(C(=O)c1cc3ccccc3[nH]1)CC2)C1CCOC1` (stereo not drawn) [Example 189, 5-(1H-indole-2-carbonyl)-N-methyl-N-(oxolan-3-yl)-1H4H,5H,6H,7H-pyrazolo[4,3-c]pyridine-3-carboxamide], the EC50 in the data set on HBV lay in the range of 1 to 25 µM. Besides, on HBV core protein, the IC50 is below 100 µM. In data set [1], this compound returned a CC50 at 6 days above 10 µM.

With `O=C(c1cc2ccccc2[nH]1)N1CCc2[nH]nc(C(=O)N3CCC(F)(F)CC3)c2C1` [Example 190, 2-[3-(4,4-difluoropiperidine-1-carbonyl)-1H,4H,5H,6H,7H-pyrazolo[4,3-c]pyridine-5-carbonyl]-1H-indole], the EC50 with HBV is below 1 µM. Also, the IC50 on HBV core protein was below 5 µM. The 50% cytotoxic concentration (CC50) at 6 days in data set [1] is above 10 µM.

`CC(C)(C)OC(=O)N[C@@H]1CCN(C(=O)c2n[nH]c3c2CN(C(=O)c2cc4ccccc4[nH]2)CC3)C1` [Example 191, tert-butyl N-[(3R)-1-[5-(1H-indole-2-carbonyl)-1H,4H,5H,6H,7H-pyrazolo[4,3-c]pyridine-3-carbonyl]pyrrolidin-3-yl]carbamate]: in the data set with HBV, the EC50 lay within 1 to 25 µM. Moreover, the IC50 on HBV core protein is below 5 µM. The compound further displayed a CC50 at 6 days in data set [1] above 10 µM.

For `CN(C(=O)c1n[nH]c2c1CN(C(=O)c1cc3ccccc3[nH]1)CC2)C1CCCOC1` (stereo not drawn) [Example 193, 5-(1H-indole-2-carbonyl)-N-methyl-N-(oxan-3-yl)-1H,4H,5H,6H,7H-pyrazolo[4,3-c]pyridine-3-carboxamide], in the data set with HBV, the EC50 was in the range of 1 to 25 µM. Moreover, the half-inhibitory concentration (IC50) at HBV core protein is below 100 µM. For the same compound, the half-maximal cytotoxic concentration (CC50) at 6 days in data set [1] is above 10 µM.

`CC(C)(C)OC(=O)N[C@H]1CCN(C(=O)c2n[nH]c3c2CN(C(=O)c2cc4ccccc4[nH]2)CC3)C1` [Example 194, tert-butyl N-[(3S)-1-[5-(1H-indole-2-carbonyl)-1H,4H,5H,6H,7H-pyrazolo[4,3-c]pyridine-3-carbonyl]pyrrolidin-3-yl]carbamate]: the EC50 with HBV is 1 to 25 µM. Besides, the IC50 on HBV core protein is below 100 µM. In data set [1], this compound showed a CC50 at 6 days above 10 µM.

Turning to `O=C(c1cc2ccccc2[nH]1)N1CCc2[nH]nc(C(=O)N3CCOCC34CC4)c2C1` [Example 195, 2-(3-{7-oxa-4-azaspiro[2.5]octane-4-carbonyl}-1H,4H,5H,6H,7H-pyrazolo[4,3-c]pyridine-5-carbonyl)-1H-indole], in the data set with HBV, the EC50 is below 1 µM. Further, the IC50 at HBV core protein lay within 5 to 10 µM. In data set [1], this compound gave a CC50 at 6 days above 10 µM.

The values above are taken from patent US11236087B2, “Highly active pyrazolo-piperidine substituted indole-2-carboxamides active against the hepatitis B virus (HBV)” (AiCuris GmbH & Co. KG, priority 2017, dated 2022).
